We go through 13 compounds from patent US10065948B2, “Histone deacetylase inhibitors and compositions and methods of use thereof” (CHDI Foundation, Inc., priority 2014, dated 2018).

In experiment [1] the test system is cellular histone deacetylase enzymatic activity in Jurkat E6-1 cells. The experiment in a line: Inhibition of cellular HDAC activity, Boc-Lys(Tfa)-AMC substrate (Cell Lys-TFA). Format: cell-based. As to the method:
The potency of the compounds is quantified by measuring the cellular histone deacetylase enzymatic activity using the fluorogenic substrate, Boc-Lys(Tfa)-AMC. After penetration in Jurkat E6-1 cells, the substrate is deacetylated to Boc-Lys-AMC. After cell lysis and cleavage by trypsin, the fluorophore AMC is released from the deacetylated substrate only. The fluorescence of the sample is directly related to the histone deacetylase activity in the sample.
Jurkat E6.1 cells are cultured according to standard cell culture protocols in Jurkat E6.1 Growth Media (RPMI without phenol red, 10% FBS, 10 mM HEPES, and 1 mM Sodium Pyruvate). Jurkat E6.1 cells are counted using a Coulter Counter and resuspended in Jurkat E6.1 growth media at a concentration of 75,000 cells/35 μL. 35 μL or 75,000 cells is seeded into Greiner microtitre assay plates. The plates are then incubated at 37° C. and 5% CO2 while other assay components are being prepared.
Stocks of 70 μL aliquots of the 10 mM compound in DMSO are prepared and stored at −20° C. From one stock aliquot of each compound to be tested and the reference compound, a 16-point serial dilution is prepared according to Table 1 using a 125 μL 16-channel Matrix multi-channel pipette.
2 μL (200×) of each diluted solution and each control (full activity: 100% DMSO alone or full inhibition 1 mM) is stamped into V-bottom polypropylene 384-well compound plates using either the Bravo, Janus, or 12.5 μL 16-channel Matrix multi-channel pipette. Each well with the 200× compound solution is diluted 1:20 by the addition of 38 μL Jurkat assay buffer+DMSO (9.5% DMSO, RPMI without phenol red, 0.09% FBS, 9 mM Hepes, and 0.9 mM Sodium Pyruvate equilibrated to room temperature)
5× (500 μM) substrate is prepared just prior to the addition to the assay. The 5× substrate is prepared by diluting a 100 mM Boc-Lys(Tfa)-AMC in DMSO solution 1:200 by adding it drop-wise to Jurkat assay medium (RPMI without phenol red, 0.1% FBS, 10 mM Hepes, and 1 mM Sodium Pyruvate equilibrated to 37° C.) while vortexing at slow speed to prevent precipitation.
10 mL of 3× lysis buffer is prepared with 8.8 ml of 3× stock lysis buffer (50 mM Tris-HCl, pH 8.0, 137 mM NaCl, 2.7 mM KCl, 1 mM MgCl2, 1% Nonidet P40 Substitute equilibrated to room temperature) and 1.2 mL of 3 mg/mL Trypsin equilibrated to room temperature.
5 μL of each solution of 1:20 diluted compound from above is transferred to the Greiner microtitre assay plates with 75,000 cells/well using the Bravo. Cells are then incubated for 2 hours at 37° C. and 5% CO2. […] The cells are then incubated for 3 hours at 37° C. and 5% CO2. Next, 25 μL of 3× lysis buffer is added to each well using either the 125 μL 16 channel pipette or the Bravo. The assay plate is then incubated overnight (15-16 hours) at 37° C. and 5% CO2. The following day, the plates are shaken on an orbital shaker for 1 minute at 900 rpm. Finally the top read fluorescence (Excitation: 355 nm, Emission: 460 nm) is measured using PerkinElmer EnVision.

The target in experiment [2] is Histone Deacetylase 4 (HDAC4) catalytic domain (Homo sapiens (Human), UniProt P56524). The experiment in a line: Biochemical HDAC inhibition assay, fluorogenic substrate Boc-Lys(Tfa)-AMC. As to the method:
The potency of compounds is quantified by measuring the Histone Deacetylase 4 (HDAC4) catalytic domain enzymatic activity using the fluorogenic substrate, Boc-Lys(Tfa)-AMC. The substrate is deacetylated to Boc-Lys-AMC by HDAC4. Cleavage by trypsin results in the release of the fluorophore AMC from the deacetylated substrate. The fluorescence of the sample is directly related to the histone deacetylase activity in the sample.
Stocks of 60 μL aliquots of the 10 mM compound in DMSO are prepared and stored at −20° C. From one stock aliquot of each compound to be tested and the reference compound, a 16-point serial dilution is prepared according to Table 1 using a 125 μL 16-channel Matrix multi-channel pipette (Matrix Technologies Ltd).
2 μL (200×) of each diluted solution and each control (full activity: 100% DMSO alone or full inhibition 1 mM) is stamped into V-bottomed polypropylene 384-well compound plates using either the Bravo (384-well head from Agilent) or 12.5 μL 16-channel Matrix multi-channel pipette (Matrix Technologies Ltd). Each well with the 200× compound solution is diluted 1:20 by the addition of 38 μL assay buffer+DMSO (10.5% DMSO, 45 mM Tris-HCl, 123 mM NaCl, 2.4 mM KCl, and 0.9 mM MgCl2 at pH 8.0 and equilibrated to room temperature).
The HDAC4 catalytic domain enzyme is human catalytic domain HDAC4 protein (amino acids 648-1032) with a C-terminal 6× histidine tag, produced by BioFocus. A working solution of enzyme is prepared from a 500 μg/mL stock aliquot of HDAC4 catalytic domain (thawed on ice) diluted to 0.2 μg/mL with assay buffer (50 mM Tris-HCl, 137 mM NaCl, 2.7 mM KCl, and 1 mM MgCl2 at pH 8 and equilibrated to room temperature) just prior to the addition of the enzyme to the assay.
5× (50 μM) substrate is prepared just prior to the addition to the assay. A 1 mM substrate stock is made by diluting a 100 mM Boc-Lys(Tfa)-AMC in DMSO solution 1:100 by adding it drop-wise to assay buffer (equilibrated to room temperature) while vortexing at slow speed to prevent precipitation. The 5× substrate is prepared by diluting the 1 mM substrate solution 1:20 by adding it drop-wise to assay buffer (equilibrated to room temperature) while vortexing at slow speed to prevent precipitation.
3× (30 μM) Developer/Stop Solution is prepared just prior to addition to the plate by diluting a stock solution of 10 mM reference compound 1:333 in 25 mg/mL trypsin (PAA Laboratories Ltd.) equilibrated to room temperature.
5 μL of each solution of 1:20 diluted compound from above is transferred to a clear bottomed, black, 384-well assay plate using the Bravo or the Janus (384-well MDT head from Perkin Elmer). Using a 16-channel Matrix multi-channel pipette, 35 μL of the working solution of HDAC4 catalytic domain enzyme (0.2 μg/mL in assay buffer) is transferred to the assay plate. […] The assay plate is then shaken for two minutes on an orbital shaker at 900 rpm (rotations per minute). Next the plate is incubated for 15 minutes at 37° C. The reaction is stopped by adding 25 μL of 3× (30 μM) developer/stop solution to the assay plates using either the Bravo, Janus or a 16-channel Matrix multi-channel pipette. Assay plates are then shaken for 5 minutes on an orbital shaker at 1200 rpm. Next, the assay plates are incubated at 37° C. for 1 hour in a tissue culture incubator. Finally, the fluorescence is measured (Excitation: 355 nm, Emission: 460 nm) using PerkinElmer EnVision in top read mode.

For experiment [3], the system named is cellular histone deacetylase activity (Lys-Ac). Briefly: Inhibition of cellular HDAC activity (Cell Lys-Ac). Format: cell-based. As to conditions: Lys-Ac substrate.
The mark [4] stands for this setting: Homo sapiens, Jurkat E6.1, Lys-TFA substrate.

SMILES strings stand for the structures.

Sequence of Histone Deacetylase 4 (HDAC4) catalytic domain (P56524 648-1032): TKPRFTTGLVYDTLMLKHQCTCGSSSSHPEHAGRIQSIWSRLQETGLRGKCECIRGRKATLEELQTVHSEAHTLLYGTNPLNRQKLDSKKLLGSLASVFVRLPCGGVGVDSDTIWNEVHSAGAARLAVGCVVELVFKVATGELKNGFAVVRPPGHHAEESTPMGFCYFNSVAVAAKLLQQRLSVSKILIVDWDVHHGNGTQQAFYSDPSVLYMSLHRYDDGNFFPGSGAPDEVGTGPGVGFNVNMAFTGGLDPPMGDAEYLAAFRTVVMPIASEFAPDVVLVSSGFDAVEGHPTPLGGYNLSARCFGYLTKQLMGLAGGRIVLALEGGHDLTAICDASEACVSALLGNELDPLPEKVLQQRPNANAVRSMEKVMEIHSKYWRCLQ

Broadly, the IC50 is the concentration that inhibits the measured activity by half. A lower IC50 goes with greater potency in that assay. As to `Cc1cccc(F)c1-n1ncc2c1C[C@](C(=O)NO)(c1cccc(F)c1C)C2` [Example 15, (S)-5-(3-Fluoro-2-methylphenyl)-1-(2-fluoro-6-methylphenyl)-N-hydroxy-1,4,5,6-tetrahydrocyclopenta[c]pyrazole-5-carboxamide], the IC50 is 32 nM in experiment [1] (setting [4]), 19 nM in experiment [2] and above 50000 nM in experiment [3].
For `Cc1c(F)cccc1[C@]1(C(=O)NO)Cc2cnn(-c3ccc(OC(F)F)cc3)c2C1` [Example 20, (S)-1-(4-(Difluoromethoxy)phenyl)-5-(3-fluoro-2-methylphenyl)-N-hydroxy-1,4,5,6-tetrahydrocyclopenta[c]pyrazole-5-carboxamide] the same measures were 250 nM, 109 nM and above 50000 nM.
Consider `Cc1c(F)cccc1[C@]1(C(=O)NO)Cc2cnn(-c3ccccc3Cl)c2C1` [Example 7, (S)-1-(2-Chlorophenyl)-5-(3-fluoro-2-methylphenyl)-N-hydroxy-1,4,5,6-tetrahydrocyclopenta[c]pyrazole-5-carboxamide], for which the results for the IC50 in experiment [1] (setting [4]), in experiment [2] and in experiment [3] were 13 nM, 15 nM and above 50000 nM, respectively.
Consider `Cc1c(F)cccc1C1(C(=O)NO)CCc2nn(Cc3ccc(F)cc3)cc2C1` (centres unmarked) [Example 36, 5-(3-Fluoro-2-methylphenyl)-1-(4-fluorobenzyl)-N-hydroxy-4,5,6,7-tetrahydro-1H-indazole-5-carboxamide and 5-(3-fluoro-2-methylphenyl)-2-(4-fluorobenzyl)-N-hydroxy-4,5,6,7-tetrahydro-2H-indazole-5-carboxamide], for which the 50% inhibitory concentration (IC50) in experiment [1] (Lys-TFA substrate) was 370 nM; in experiment [2] it was 600 nM; in experiment [3], above 50000 nM.
In the case of `Cc1c(F)cccc1[C@]1(C(=O)NO)Cc2cnn(C(C)C)c2C1` [Example 53, (S)-5-(3-Fluoro-2-methylphenyl)-N-hydroxy-1-isopropyl-1,4,5,6-tetrahydrocyclopenta[c]pyrazole-5-carboxamide], the IC50 was 230 nM in experiment [1] (setting [4]), 67 nM in experiment [2] and above 50000 nM in experiment [3].
Turning to `Cc1c(F)cccc1[C@]1(C(=O)NO)Cc2cnc(C(F)(F)F)nc2C1` [Example 56, (S)-6-(3-Fluoro-2-methylphenyl)-N-hydroxy-2-(trifluoromethyl)-6,7-dihydro-5H-cyclopenta[d]pyrimidine-6-carboxamide], the results for the IC50 in experiment [1] (setting [4]), in experiment [2] and in experiment [3] were 1800 nM, 880 nM and above 50000 nM, respectively.
For `Cc1c(F)cccc1C1(C(=O)NO)CCc2nc(NS(=O)(=O)c3ccccc3)sc2C1` (centres unmarked) [Example 41, 6-(3-Fluoro-2-methylphenyl)-N-hydroxy-2-(phenylsulfonamido)-4,5,6,7-tetrahydrobenzo[d]thiazole-6-carboxamide] the same measures were 1600 nM, 190 nM and above 50000 nM.
On to `Cc1c(F)cccc1[C@]1(C(=O)NO)Cc2cnn(-c3ccc(F)cn3)c2C1` [Example 16, (S)-5-(3-Fluoro-2-methylphenyl)-1-(5-fluoropyridin-2-yl)-N-hydroxy-1,4,5,6-tetrahydrocyclopenta[c]pyrazole-5-carboxamide], for which the results for the IC50 in experiment [1] (setting [4]), in experiment [2] and in experiment [3] were 69 nM, 31 nM and above 50000 nM, respectively.
Consider `Cc1cc(C)nc(-n2cc3c(n2)C[C@](C(=O)NO)(c2cccc(F)c2C)C3)n1` [Example 91, (S)-2-(4,6-Dimethylpyrimidin-2-yl)-5-(3-fluoro-2-methylphenyl)-N-hydroxy-2,4,5,6-tetrahydrocyclopenta[c]pyrazole-5-carboxamide], for which the IC50 was 460 nM in experiment [1] (setting [4]), 280 nM in experiment [2] and above 50000 nM in experiment [3].
`Cc1c(F)cccc1[C@]1(C(=O)NO)Cc2nc(-c3ccc(F)cc3)sc2C1` [Example 67, (S)-5-(3-fluoro-2-methylphenyl)-2-(4-fluorophenyl)-N-hydroxy-5,6-dihydro-4H-cyclopenta[d]thiazole-5-carboxamide]: the results for the 50% inhibitory concentration (IC50) in experiment [1] (setting [4]) and in experiment [3] were 290 nM and above 50000 nM, respectively.
As to `Cc1c(F)cccc1C1(C(=O)NO)CCc2nn(CC(F)(F)F)cc2C1` (centres unmarked) [Example 35, 5-(3-Fluoro-2-methylphenyl)-N-hydroxy-1-(2,2,2-trifluoroethyl)-4,5,6,7-tetrahydro-1H-indazole-5-carboxamide and 5-(3-fluoro-2-methylphenyl)-N-hydroxy-2-(2,2,2-trifluoroethyl)-4,5,6,7-tetrahydro-2H-indazole-5-carboxamide], the concentration for half-maximal inhibition (IC50) in experiment [1] (Lys-TFA substrate) was 770 nM; in experiment [3], above 50000 nM.
As to `Cc1c(F)cccc1[C@]1(C(=O)NO)Cc2snc(-c3ccccc3)c2C1` [Example 80, E1-(abs)-5-(3-Fluoro-2-methylphenyl)-N-hydroxy-3-phenyl-5,6-dihydro-4H-cyclopenta[d]isothiazole-5-carboxamide], the figures for the IC50 in experiment [1] (setting [4]) and in experiment [3] were 45 nM and above 50000 nM, respectively.
In the same order, the values of `Cc1c(F)cccc1C1(C(=O)NO)Cc2nc(-c3cccc(F)c3)sc2C1` (single isomer, unassigned) [Example 64, E1-(abs)-5-(3-Fluoro-2-methylphenyl)-2-(3-fluorophenyl)-N-hydroxy-5,6-dihydro-4H-cyclopenta[d]thiazole-5-carboxamide] are 110 nM and above 50000 nM.
